Common to all, as to assay type: cell-based
One assay addresses T1, KRAS (Homo sapiens, UniProt P01116).
T1 construct: endogenous in cells; host or cells: KE39 (KRAS amplified) cells
In words: KRASamp MSD assay. To be noted: KE39 (KRAS amplified) cells, treated with test compounds for 24 hr, MSD readout of KRAS degradation. An outline of the steps:
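Degradation DC50 derived by curve fitting, with KRAS levels quantified by MSD electrochemiluminescence (capture/detection antibodies, recombinant WT KRAS standard). Lysates prepared from KE39 cells (KRAS amplified) exposed to test compounds for 24 hr.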

The target of a further assay is T2, KRAS G12D (Homo sapiens, UniProt P01116, G12D).
T2 construct: AsPc-1-KRAS (G12D)-HiBit-KI cell (Pharmaron); host or cells: AsPc-1-KRAS (G12D)-HiBit-KI cells (HiBiT knock-in at the endogenous KRAS locus)
T2 sequence (P01116 1-188 isoform P01116-2 G12D): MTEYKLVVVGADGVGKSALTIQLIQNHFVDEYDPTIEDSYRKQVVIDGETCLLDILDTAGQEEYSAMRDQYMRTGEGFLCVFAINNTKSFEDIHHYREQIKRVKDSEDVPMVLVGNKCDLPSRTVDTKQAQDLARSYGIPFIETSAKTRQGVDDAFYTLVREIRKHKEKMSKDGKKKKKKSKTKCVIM
Kind of assay: KRAS G12D HiBit assay. To be noted: AsPc-1-KRAS (G12D)-HiBit-KI cell, compound treatment for 24 hours; for DC50: absolute DC50. Summed up:
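HiBiT luminescence, detected by adding lytic buffer, substrate and LgBiT protein, served as the KRAS G12D read-out. Compounds, serially diluted 3-fold over 10 points from 0.3 mM DMSO stock, were on cells for 24 h; percent inhibition normalized to cells given 0.1% DMSO only.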
On the technique in general: HiBiT is a short tag that completes a luciferase, so light tracks the accessible tagged protein.

The target in a further assay is T3, KRAS G12V (Homo sapiens, UniProt P01116, G12V).
T3 construct: SW620-KRAS (G12V)-HiBit-KI cell (Pharmaron); host or cells: SW620-KRAS (G12V)-HiBit-KI cells (HiBiT knock-in at the endogenous KRAS locus)
T3 sequence (P01116 1-188 isoform P01116-2 G12V): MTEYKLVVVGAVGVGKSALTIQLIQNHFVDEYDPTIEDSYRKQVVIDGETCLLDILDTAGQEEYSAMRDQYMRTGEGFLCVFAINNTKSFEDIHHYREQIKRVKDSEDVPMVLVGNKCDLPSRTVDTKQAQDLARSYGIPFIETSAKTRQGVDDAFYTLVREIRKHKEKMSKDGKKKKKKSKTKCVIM
Kind of assay: KRAS G12V HiBit assay. To be noted: SW620-KRAS (G12V)-HiBit-KI cells, compound treatment for 24 hours, class symbols. Summed up: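 Luminescence from lytic Nano-Glo HiBiT detection with LgBiT read KRAS G12V levels after 24 h compound exposure. Dilutions were 10-point, 3-fold, from a 0.3 mM DMSO stock. Degradation activity was normalised to cells given 0.1% DMSO alone.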

A value given as a limit tells only on which side of the number the result lay.

T1 sequence (P01116 1-188 isoform P01116-2): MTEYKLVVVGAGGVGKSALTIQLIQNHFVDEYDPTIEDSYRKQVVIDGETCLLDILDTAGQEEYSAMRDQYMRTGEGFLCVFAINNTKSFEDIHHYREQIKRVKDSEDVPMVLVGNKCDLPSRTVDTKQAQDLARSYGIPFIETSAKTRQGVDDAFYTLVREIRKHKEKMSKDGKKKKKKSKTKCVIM

For the compound `C#Cc1c(F)ccc2cc(O)cc(-c3ncc4c(N5CCC[C@@](C)(O)C5)nc(OC[C@@]56CCCN5[C@H](COC(=O)N5CCC(CN7CCC(c8cc9c(cc8F)n(C8CCC(=O)NC8=O)c(=O)n9C)CC7)CC5)CC6)nc4c3F)c12` (stereo partly drawn) [Compound 407, ((3S,7aS)-7a-(((7-(8-ethynyl-7-fluoro-3-hydroxynaphthalen-1-yl)-8-fluoro-4-((R)-3-hydroxy-3-methylpiperidin-1-yl)pyrido[4,3-d]pyrimidin-2-yl)oxy)methyl)hexahydro-1H-pyrrolizin-3-yl)methyl 4-((4-(1-(2,6-dioxopiperidin-3-yl)-6-fluoro-3-methyl-2-oxo-2,3-dihydro-1H-benzo[d]imidazol-5-yl)piperidin-1-yl)methyl)piperidine-1-carboxylate], the results for the DC50 at KRAS, on KRAS G12D (class symbols) and on KRAS G12V were less than 1 nM, less than 100 nM and less than 10 nM, respectively.

As to `CCc1c(F)ccc2cc(O)cc(-c3ncc4c(N5CCC[C@@](C)(O)C5)nc(OC[C@@]56CCCN5[C@H](COC(=O)N5CCC(CN7CCC(c8ccc9c(c8)n(C)c(=O)n9C8CCC(=O)NC8=O)CC7)C5)CC6)nc4c3F)c12` (stereo partly drawn) [Compound 433, ((3S,7aS)-7a-(((7-(8-ethyl-7-fluoro-3-hydroxynaphthalen-1-yl)-8-fluoro-4-((R)-3-hydroxy-3-methylpiperidin-1-yl)pyrido[4,3-d]pyrimidin-2-yl)oxy)methyl)hexahydro-1H-pyrrolizin-3-yl)methyl 3-((4-(1-(2,6-dioxopiperidin-3-yl)-3-methyl-2-oxo-2,3-dihydro-1H-benzo[d]imidazol-5-yl)piperidin-1-yl)methyl)pyrrolidine-1-carboxylate], the DC50 is 1 to 10 nM on KRAS, less than 100 nM on KRAS G12D (class symbols) and less than 10 nM on KRAS G12V.

`CCc1c(F)ccc2cc(O)cc(-c3ncc4c(N5CCC[C@@](C)(O)C5)nc(OC[C@@]56CCCN5[C@H](COC(=O)N5CCC(OCCC#Cc7ccc8c(c7)n(C)c(=O)n8C7CCC(=O)NC7=O)CC5)CC6)nc4c3F)c12` (stereo partly drawn) [Compound 371, ((3S,7aS)-7a-(((7-(8-ethyl-7-fluoro-3-hydroxynaphthalen-1-yl)-8-fluoro-4-((R)-3-hydroxy-3-methylpiperidin-1-yl)pyrido[4,3-d]pyrimidin-2-yl)oxy)methyl)hexahydro-1H-pyrrolizin-3-yl)methyl 4-((4-(1-(2,6-dioxopiperidin-3-yl)-3-methyl-2-oxo-2,3-dihydro-1H-benzo[d]imidazol-5-yl)but-3-yn-1-yl)oxy)piperidine-1-carboxylate]: the DC50 on KRAS was 1 to 10 nM; at KRAS G12D (class symbols) it was less than 100 nM; on KRAS G12V, less than 10 nM.

For `CCc1cccc2cc(O)cc(-c3ncc4c(N5CCC[C@@](C)(O)C5)nc(OC[C@@]56CCCN5[C@H](COC(=O)N5CCC7(CC5)CC(N5CCC(c8ccc9c(c8)n(C)c(=O)n9C8CCC(=O)NC8=O)CC5)C7)CC6)nc4c3F)c12` (stereo partly drawn) [Compound 468, ((3S,7aS)-7a-(((7-(8-ethyl-3-hydroxynaphthalen-1-yl)-8-fluoro-4-((R)-3-hydroxy-3-methylpiperidin-1-yl)pyrido[4,3-d]pyrimidin-2-yl)oxy)methyl)hexahydro-1H-pyrrolizin-3-yl)methyl 2-(4-(1-(2,6-dioxopiperidin-3-yl)-3-methyl-2-oxo-2,3-dihydro-1H-benzo[d]imidazol-5-yl)piperidin-1-yl)-7-azaspiro[3.5]nonane-7-carboxylate], the values for the DC50 at KRAS, on KRAS G12D (class symbols) and on KRAS G12V were less than 1 nM, less than 100 nM and less than 10 nM, respectively.

In the case of `C#Cc1c(F)ccc2cc(O)cc(-c3ncc4c(N5CCCCC5)nc(OC[C@@]56CCCN5[C@H](COC(=O)N5CCC(CN7CCC(c8ccc9c(c8)n(C)c(=O)n9C8CCC(=O)NC8=O)CC7)CC5)CC6)nc4c3F)c12` (stereo partly drawn) [Compound 122, ((3S,7aS)-7a-(((7-(8-Ethynyl-7-fluoro-3-hydroxynaphthalen-1-yl)-8-fluoro-4-(piperidin-1-yl)pyrido[4,3-d]pyrimidin-2-yl)oxy)methyl)hexahydro-1H-pyrrolizin-3-yl)methyl4-((4-(1-(2,6-dioxopiperidin-3-yl)-3-methyl-2-oxo-2,3-dihydro-1H-benzo[d]imidazol-5-yl)piperidin-1-yl)methyl) piperidine-1-carboxylate], the DC50 at KRAS was less than 1 nM; on KRAS G12D (class symbols), less than 100 nM; on KRAS G12V, less than 10 nM. On KRAS G12D (class symbols), the Dmax was greater than 50%.

In the case of `CCc1c(F)ccc2cc(O)cc(-c3ncc4c(N5CCC[C@@](C)(O)C5)nc(OC[C@@]56CCCN5[C@H](COC(=O)N5CC7(CC(N8CCC(c9ccc%10c(c9)n(C)c(=O)n%10C9CCC(=O)NC9=O)CC8)C7)C5)CC6)nc4c3F)c12` (stereo partly drawn) [Compound 416, ((3S,7aS)-7a-(((7-(8-ethyl-7-fluoro-3-hydroxynaphthalen-1-yl)-8-fluoro-4-((R)-3-hydroxy-3-methylpiperidin-1-yl)pyrido[4,3-d]pyrimidin-2-yl)oxy)methyl)hexahydro-1H-pyrrolizin-3-yl)methyl 6-(4-(1-(2,6-dioxopiperidin-3-yl)-3-methyl-2-oxo-2,3-dihydro-1H-benzo[d]imidazol-5-yl)piperidin-1-yl)-2-azaspiro[3.3]heptane-2-carboxylate], the values for the DC50 on KRAS, at KRAS G12D (class symbols) and on KRAS G12V were less than 1 nM, less than 100 nM and less than 10 nM, respectively.

Turning to `Cn1c(=O)n(C2CCC(=O)NC2=O)c2ccc(N3CCC(CN4CCN(C(=O)OC[C@@H]5CC[C@]6(COc7nc(N8CCC[C@@](C)(O)C8)c8cnc(-c9cc(O)cc%10ccc(F)cc9%10)c(F)c8n7)CCCN56)CC4)CC3)cc21` (stereo partly drawn) [Compound 445, ((3S,7aS)-7a-(((8-fluoro-7-(7-fluoro-3-hydroxynaphthalen-1-yl)-4-((R)-3-hydroxy-3-methylpiperidin-1-yl)pyrido[4,3-d]pyrimidin-2-yl)oxy)methyl)hexahydro-1H-pyrrolizin-3-yl)methyl 4-((1-(1-(2,6-dioxopiperidin-3-yl)-3-methyl-2-oxo-2,3-dihydro-1H-benzo[d]imidazol-5-yl)piperidin-4-yl)methyl)piperazine-1-carboxylate], the figures for the DC50 on KRAS, on KRAS G12D (class symbols) and on KRAS G12V were less than 1 nM, less than 100 nM and less than 10 nM, respectively.

Take `C#Cc1c(F)ccc2cc(O)cc(-c3ncc4c(N5CCC[C@@](C)(O)C5)nc(OC[C@@]56CCCN5[C@H](COC(=O)N5CCC7(CC5)CCN7C5CCN(c7ccc8c(c7)n(C)c(=O)n8C7CCC(=O)NC7=O)CC5)CC6)nc4c3F)c12` (stereo partly drawn) [Compound 320, ((3S,7aS)-7a-(((7-(8-ethynyl-7-fluoro-3-hydroxynaphthalen-1-yl)-8-fluoro-4-((R)-3-hydroxy-3-methylpiperidin-1-yl)pyrido[4,3-d]pyrimidin-2-yl)oxy)methyl)hexahydro-1H-pyrrolizin-3-yl)methyl 1-(1-(1-(2,6-dioxopiperidin-3-yl)-3-methyl-2-oxo-2,3-dihydro-1H-benzo[d]imidazol-5-yl)piperidin-4-yl)-1,7-diazaspiro[3.5]nonane-7-carboxylate]: the DC50 on KRAS is no less than 10 nM; at KRAS G12D (numeric bounds given in place of class symbols), greater than 100 nM; at KRAS G12V, greater than 100 nM.

Take `CCc1c(F)ccc2cc(O)cc(-c3ncc4c(N5CCC[C@@](C)(O)C5)nc(OC[C@@]56CCCN5[C@H](COC(=O)N5CCC(OC7CCN(c8ccc9c(c8)n(C)c(=O)n9C8CCC(=O)NC8=O)CC7)CC5)CC6)nc4c3F)c12` (stereo partly drawn) [Compound 160, ((3S,7aS)-7a-(((7-(8-Ethyl-7-fluoro-3-hydroxynaphthalen-1-yl)-8-fluoro-4-((R)-3-hydroxyl-3-methylpiperidin-1-yl)pyrido[4,3-d]pyrimidin-2-yl)oxy)methyl)hexahydro-1H-pyrrolizin-3-yl)methyl 4-((1-(1-(2,6-dioxopiperidin-3-yl)-3-methyl-2-oxo-2,3-dihydro-1H-benzo[d]imidazol-5-yl)piperidin-4-yl)oxy)piperidine-1-carboxylate]: the DC50 on KRAS was less than 1 nM; on KRAS G12D (class symbols) it was less than 100 nM; at KRAS G12V it was less than 10 nM.

As to `CCc1c(F)ccc2cc(O)cc(-c3ncc4c(N5CCC[C@@](C)(O)C5)nc(OC[C@@]56CCCN5[C@H](COC(=O)N5CCC7(CC5)CCN(C5CCN(c8ccc9c(c8)n(C)c(=O)n9C8CCC(=O)NC8=O)CC5)C7)CC6)nc4c3F)c12` (stereo partly drawn) [Compound 456, ((3S,7aS)-7a-(((7-(8-ethyl-7-fluoro-3-hydroxynaphthalen-1-yl)-8-fluoro-4-((R)-3-hydroxy-3-methylpiperidin-1-yl)pyrido[4,3-d]pyrimidin-2-yl)oxy)methyl)hexahydro-1H-pyrrolizin-3-yl)methyl 2-(1-(1-(2,6-dioxopiperidin-3-yl)-3-methyl-2-oxo-2,3-dihydro-1H-benzo[d]imidazol-5-yl)piperidin-4-yl)-2,8-diazaspiro[4.5]decane-8-carboxylate], the DC50 was 1 to 10 nM on KRAS, less than 100 nM at KRAS G12D (class symbols) and less than 10 nM at KRAS G12V.
